Assay results reported in publication PMC8393646, “Metformin Is a Pyridoxal-5′-phosphate (PLP)-Competitive Inhibitor of SHMT2” (Cancers, 2021).
Structures can show the parent of a compound that is named as a salt.

Columns and labels:
[1] = molecular target: T1, SHMT1 (cytosolic serine hydroxymethyltransferase) (Homo sapiens, UniProt P34896); assay: spectrophotometric quinonoid-intermediate assay ([…] nm) with purified recombinant enzyme; format: biochemical
T1 sequence (P34896 2-483): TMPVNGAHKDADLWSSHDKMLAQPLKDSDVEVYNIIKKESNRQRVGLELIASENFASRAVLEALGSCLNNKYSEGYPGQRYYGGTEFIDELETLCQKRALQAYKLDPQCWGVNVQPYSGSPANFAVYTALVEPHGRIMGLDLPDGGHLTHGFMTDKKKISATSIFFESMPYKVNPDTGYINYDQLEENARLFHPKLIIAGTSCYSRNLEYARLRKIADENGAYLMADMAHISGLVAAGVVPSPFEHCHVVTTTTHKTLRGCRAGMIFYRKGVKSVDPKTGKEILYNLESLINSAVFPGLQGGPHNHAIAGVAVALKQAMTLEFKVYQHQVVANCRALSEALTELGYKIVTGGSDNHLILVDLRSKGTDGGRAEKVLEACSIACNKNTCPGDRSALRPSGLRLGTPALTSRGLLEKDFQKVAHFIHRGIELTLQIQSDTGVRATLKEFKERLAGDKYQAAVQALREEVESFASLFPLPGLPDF

[2] = molecular target: T2, SHMT2 (mitochondrial serine hydroxymethyltransferase) (Homo sapiens, UniProt P34897); assay: spectrophotometric quinonoid-intermediate assay ([…] nm) with purified recombinant enzyme, mixed-type inhibition fit; supported by DSF; format: biochemical
T2 sequence (P34897 30-504): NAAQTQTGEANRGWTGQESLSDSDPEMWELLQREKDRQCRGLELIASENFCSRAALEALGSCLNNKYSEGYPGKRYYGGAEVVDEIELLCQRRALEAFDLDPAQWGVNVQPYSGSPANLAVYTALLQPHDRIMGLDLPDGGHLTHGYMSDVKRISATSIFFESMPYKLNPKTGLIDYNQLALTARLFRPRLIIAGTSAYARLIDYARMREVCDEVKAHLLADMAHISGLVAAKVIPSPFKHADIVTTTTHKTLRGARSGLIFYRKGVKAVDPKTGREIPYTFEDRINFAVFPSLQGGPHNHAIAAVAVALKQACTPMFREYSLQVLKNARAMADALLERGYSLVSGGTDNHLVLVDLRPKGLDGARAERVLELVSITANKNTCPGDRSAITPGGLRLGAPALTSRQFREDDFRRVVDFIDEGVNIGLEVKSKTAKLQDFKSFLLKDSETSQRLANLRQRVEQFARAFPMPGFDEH

[3] = molecular target: T2, SHMT2 (mitochondrial serine hydroxymethyltransferase); assay: DSF titration of apo-enzyme with PLP (Tm vs concentration); format: binding; design: apo-SHMT2

Row | Compound | Ki [1] | Ki [2] | Kd [3]
1 | CN(C)C(=N)N=C(N)N [MET, 1,1-dimethylbiguanide hydrochloride] | 100 ± 33 mM | 13.3 ± 2.1 mM | –
2 | Cc1ncc(COP(=O)(O)O)c(C=O)c1O [PLP, pyridoxal-5′-phosphate] | – | – | 0.0003 mM
